Results taken from PMC10478077 (Journal of medicinal chemistry, 2019).

Key:
Mtb fumarase = Mtb fumarase (Mycobacterium tuberculosis, UniProt P9WN93); test: Biochemical assay of Mtb fumarase enzymatic activity; details: for Inhibition (%) at 50 μM: 50 μM ligand concentration
[1] = tested on: H37Rv Mycobacterium tuberculosis; test: Antimicrobial susceptibility testing; type: cell-based; details: for bactericidal activity: H37Rv Mtb
Mtb = details: cited from earlier work

Mtb fumarase, sequence (P9WN93 whole entry): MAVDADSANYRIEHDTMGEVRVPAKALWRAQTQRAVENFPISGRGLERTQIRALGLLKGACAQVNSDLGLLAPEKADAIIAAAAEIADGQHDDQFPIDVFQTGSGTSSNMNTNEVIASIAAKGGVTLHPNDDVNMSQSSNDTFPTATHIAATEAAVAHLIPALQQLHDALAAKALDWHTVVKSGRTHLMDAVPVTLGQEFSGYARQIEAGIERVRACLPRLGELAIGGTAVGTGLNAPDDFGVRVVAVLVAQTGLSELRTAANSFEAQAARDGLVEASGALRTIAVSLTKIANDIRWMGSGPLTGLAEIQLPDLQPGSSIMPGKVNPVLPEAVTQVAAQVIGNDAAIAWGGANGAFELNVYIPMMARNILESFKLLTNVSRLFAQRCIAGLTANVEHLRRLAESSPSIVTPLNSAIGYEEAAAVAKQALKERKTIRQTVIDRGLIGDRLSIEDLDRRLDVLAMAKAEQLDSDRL

In the case of `COc1ccc(S(=O)(=O)N2CCc3ccccc3CC2)cc1NC(=O)Cc1n[nH]c(=O)c2ccccc12` [Compound 16l, N-(2-Methoxy-5-((1,2,4,5-tetrahydro-3H-benzo[d]azepin-3-yl)sulfonyl)phenyl)-2-(4-oxo-3,4-dihydrophthalazin-1-yl)acetamide], the “IC50 fold lower than that of 1” value (Mtb fumarase; relative to 1 (IC50 2.0 μM)) was 3 fold.

With `COc1ccc(S(=O)(=O)N2CCCCCC2)cc1NC(=O)Cc1noc2ccccc12` [Compound 15e, N-(5-(Azepan-1-ylsulfonyl)-2-methoxyphenyl)-2-(benzo[d]isoxazol-3-yl)acetamide] the “Inhibition (%) at 50 μM” value (Mtb fumarase) was “failed to provide inhibition”.

With `COc1ccc(S(=O)(=O)N2CCCCCC2)cc1NC(=O)Cc1ccncc1` [Compound 15i, N-(5-(Azepan-1-ylsulfonyl)-2-methoxyphenyl)-2-(pyridin-4-yl)acetamide] the “Inhibition (%) at 50 μM” value (Mtb fumarase) was “eliminated inhibitory activity”.

With `COc1ccc(S(=O)(=O)N2CCCCCC2)cc1NC(=O)Cn1cnc2ccccc21` [Compound 15f, N-(5-(Azepan-1-ylsulfonyl)-2-methoxyphenyl)-2-(1H-benzo[d]imidazol-1-yl)acetamide] the “Inhibition (%) at 50 μM” value (Mtb fumarase) was “failed to provide inhibition”.

For `COc1ccc(S(=O)(=O)N2CCCCCC2)cc1NC(=O)Cc1nnc(O)c2ccccc12` [Compound 1, N-(5-(Azepan-1-ylsulfonyl)-2-methoxyphenyl)-2-(4-oxo-3,4-dihydrophthalazin-1-yl)acetamide], the bactericidal activity [1] is listed as “no bactericidal activity” and the bactericidal properties (Mtb) is listed as “did not exhibit bactericidal properties”.

With `COc1ccc(S(=O)(=O)N2CCCCCCC2)cc1NC(=O)Cc1n[nH]c(=O)c2ccccc12` [Compound 16b, N-(5-(Azocan-1-ylsulfonyl)-2-methoxyphenyl)-2-(4-oxo-3,4-dihydrophthalazin-1-yl)acetamide] the “H37Rv Mtb MIC” value ([1]; 7H9/DPPC medium) was “highly active” and the bactericidal activity [1] was “activity was observed”.

For `COc1ccc(S(=O)(=O)N2CCCCCC2)cc1NC(=O)Cc1coc2ccccc12` [Compound 15d, N-(5-(Azepan-1-ylsulfonyl)-2-methoxyphenyl)-2-(benzofuran-3-yl)acetamide], the “Inhibition (%) at 50 μM” value (Mtb fumarase) was “failed to provide inhibition”.
